Tests used:
hERG = conditions: cited from earlier work
KV10.1 = KV10.1 inhibition by related toxins (unpublished data); type: cell-based
ASIC3 = conditions: cited from earlier work
KV2.1 = conditions: ref [46]; cited from earlier work
Excerpt: APETx1 is proposed to bind to the voltage sensor paddle of hERG. In particular, the negative charge of E518 is expected to form an electrostatic interaction with the toxin [44]. Several other kinds of gating modifier toxins also bind to the extracellular exposed part of the S3–S4 domain. More precisely by binding to a glutamic acid residue and several hydrophobic amino acid residues. An example of these toxins is Hanatoxin (HaTx1) from the tarantula Grammostola spatulata.

Compound: COc1ccc(CCN2CCC(Nc3nc4ccccc4n3Cc3ccc(F)cc3)CC2)cc1 [astemizole]
- block of hERG (KV11.1) (hERG): block the cardiac human Eag-related gene (hERG, KV11.1)

Compound: APETx2
- effect on KV10.1 (KV10.1): no effect on KV10.1
- IC50 (ASIC3): ~0.063 µM
- IC50 (hERG): ~1.2 µM

Compound: HaTx1: toxin from the tarantula Grammostola spatulata (ECRYLFGGCKTTSDCCKHLGCKFRDKYCAWDFTFS; UniProt P56852 50-84, looked up)
- gating modification of KV2.1 (KV2.1): modifies the channel gating of KV2.1

— publication PMC5618426, “APETx4, a Novel Sea Anemone Toxin and a Modulator of the Cancer-Relevant Potassium Channel KV10.1” (Marine Drugs, 2017)
